What follows are compounds tested against Platelet-activating factor receptor (Canis lupus familiaris) (assay: PAF-antagonist activity determined in dog platelets by PAF-binding assay).

| Structure (SMILES) | IC50 [nM] |
| --- | --- |
| Cc1nnc2n1-c1sc(C#CCn3c4c(c5cc(Cl)ccc53)CCCC4)cc1C(c1ccccc1Cl)=NC2 | 90 |
| Cc1nnc2n1-c1sc(C#CCN3Cc4cccc5cccc(c45)C3=O)cc1C(c1ccccc1Cl)=NC2 | 4 |
| Cc1nnc2n1-c1sc(C#CCn3c(=O)n(-c4ccccc4)c4ccccc43)cc1C(c1ccccc1Cl)=NC2 | 1 |
| Cc1nnc2n1-c1sc(C#CCn3c4c(c5ccccc53)CCCCC4)cc1C(c1ccccc1Cl)=NC2 | 15 |
| Cc1nnc2n1-c1sc(C#CCn3c4c(c5ccccc53)CCCC4)cc1C(c1ccccc1Cl)=NC2 | 7 |
| Cc1nnc2n1-c1ccc(C#CCN3C(=O)CCc4ccccc43)cc1C(c1ccc(Cl)cc1)=NC2 | 100 |
| Cc1nnc2n1-c1sc(C#CCN3C(=O)C(=O)c4ccccc43)cc1C(c1ccccc1Cl)=NC2 | 7 |
| Cc1nnc2n1-c1sc(C#CCN3C(=O)CCc4ccccc43)cc1C(c1cc(O)ccc1Cl)=NC2 | 80 |
| Cc1nnc2n1-c1sc(C#CCN3C(=O)CCc4ccc(Cl)cc43)cc1C(c1ccccc1Cl)=NC2 | 7 |
| Cc1nnc2n1-c1ccc(C#CCN3C(=O)c4ccccc4C3=O)cc1C(c1ccccc1F)NC2 (stereo not given) | 110 |
| Cc1nnc2n1-c1sc(C#CCn3c(=O)n(C)c(=O)c4ccccc43)cc1C(c1ccccc1Cl)=NC2 | 0.6 |
| Cc1nnc2n1-c1ccc(C#CCN3C(=O)CCc4ccccc43)cc1C(c1ccccc1F)=N[C@H]2C | 6 |
| Cc1nnc2n1-c1sc(C#CCn3c(=O)[nH]c4ccccc43)cc1C(c1ccccc1Cl)=NC2 | 9 |
| Cc1nnc2n1-c1sc(C#CCn3c(=O)c4ccccc4c4ccccc43)cc1C(c1ccccc1Cl)=NC2O (stereo not given) | 25 |
| O=C1c2ccccc2C(=O)N1CC#Cc1ccc2c(c1)C(c1ccccc1F)=NCc1nncn1-2 | 1000 |
| O=c1c2ccccc2c2ccccc2n1CC#Cc1cc2c(s1)-n1c(CO)nnc1CN=C2c1ccccc1Cl | 75 |
| O=C1CCc2ccccc2N1CC#Cc1ccc2c(c1)C(c1ccccc1F)=NCc1nnc(C(F)(F)F)n1-2 | 200 |
| Cc1nnc2n1-c1sc(C#CCn3c(=O)n(CCN(C)C)c4ccccc43)cc1C(c1ccccc1Cl)=NC2 | 30 |
| CCc1nnc2n1-c1ccc(C#CCN3C(=O)c4ccccc4C3=O)cc1C(c1ccccc1F)=NC2 | 100 |
| Cc1nnc2n1-c1ccc(I)cc1C(c1ccccc1F)=NC2 | 1000 |

| Structure (SMILES) | IC50 [nM] |
| --- | --- |
| Cc1nnc2n1-c1sc(C#CCn3c(=O)c4ccccc4c4ccccc4c3=O)cc1C(c1ccccc1Cl)=NC2 | 51 |
| Cc1nnc2n1-c1sc(C#CCC34CCCc5cccc(c53)NC4=O)cc1C(c1ccccc1Cl)=NC2 (stereo not given) | 0.7 |
| Cc1nnc2n1-c1sc(C#CCn3cnc4ccccc43)cc1C(c1ccccc1Cl)=NC2 | 5 |
| Cc1nnc2n1-c1sc(C#CCOc3cccnc3)cc1C(c1ccccc1Cl)=NC2 | 4 |
| Cc1nnc2n1-c1sc(C#CCN3C(=O)Cn4ccc5c(Cl)ccc3c54)cc1C(c1ccccc1Cl)=NC2 | 15 |
| Cc1nnc2n1-c1sc(I)cc1C(c1cc([N+](=O)[O-])ccc1Cl)=NC2 | 360 |
| Cc1nnc2n1-c1sc(C#CCn3c4c(c5cc(Cl)ccc53)CCCCC4)cc1C(c1ccccc1Cl)=NC2 | 70 |
| Cc1nnc2n1-c1sc(C#CCN3C(=O)COc4ccccc43)cc1C(c1ccccc1Cl)=NC2 | 0.7 |
| Cc1nnc2n1-c1sc(C#CCN3C(=O)CCc4ccccc43)cc1C(c1ccccc1Cl)=NC2 | 0.2 |
| Cc1nnc2n1-c1sc(C#CCn3c(=O)c4ccccc4c4ccccc43)cc1C(c1ccccc1Cl)NC2=O (stereo not given) | 560 |
| Cc1nnc2n1-c1sc(C#CCn3c(=O)c4ccccc4c4ccccc43)cc1C(c1ccccc1Cl)=NC2 | 13 |
| Cc1nnc2n1-c1sc(C#CCn3ncc4ccccc43)cc1C(c1ccccc1Cl)=NC2 | 1 |
| Cc1nnc2n1-c1sc(C#CCN3C(=O)c4cccc5cccc(c45)C3=O)cc1C(c1ccccc1Cl)=NC2 | 12 |
| Cc1nnc2n1-c1ccc(C#CCOc3cccnc3)cc1C(c1ccccc1Cl)=NC2 | 130 |
| Cc1nnc2n1-c1sc(C#CCN3C(=O)CCc4ccccc43)cc1C(c1cc([N+](=O)[O-])ccc1Cl)=NC2 | 75 |
| C=C=Cn1c(=O)n(CC#Cc2cc3c(s2)-n2c(C)nnc2CN=C3c2ccccc2Cl)c2ccccc21 | 6 |
| Cc1nnc2n1-c1sc(C#CCn3c(=O)n(C)c4ccccc43)cc1C(c1ccccc1Cl)=NC2 | 0.3 |
| Cc1nnc2n1-c1sc(C#CCN3C(=O)CCc4cc(Cl)cc(Cl)c43)cc1C(c1ccccc1Cl)=NC2 | 9 |
| Cc1nnc2n1-c1sc(C#CCn3c(=O)n(CCN(C)C)c(=O)c4ccccc43)cc1C(c1ccccc1Cl)=NC2 | 150 |
| Cc1nnc2n1-c1sc(C#CCn3ccc4ccccc4c3=O)cc1C(c1ccccc1Cl)=NC2 | 1 |

| Structure (SMILES) | IC50 [nM] |
| --- | --- |
| Cc1nnc2nc(-c3ccccc3F)c3cc(C#CCN4C(=O)c5ccccc5C4=O)ccc3n12 | 300 |
| Cc1nnc2n1-c1sc(C#CCN3C(=O)COc4ccc(Cl)cc43)cc1C(c1ccccc1Cl)=NC2 | 5 |
| Cc1nnc2n1-c1ccc(I)cc1C(c1ccccc1F)NC2 (stereo not given) | 1000 |
| Cc1nnc2n1-c1sc(I)cc1C(c1ccccc1Cl)=NC2C (stereo not given) | 120 |
| Cc1nnc2n1-c1ccc(C#CCN3C(=O)c4ccccc4C3=O)cc1C(c1ccccc1Cl)=NC2 | 20 |
| Cc1nnc2n1-c1sc(C#CCN3C(=O)NCc4ccccc43)cc1C(c1ccccc1Cl)=NC2 | 6 |
| Cc1nnc2n1-c1sc(C#CCn3c4ccccc4c4ccccc43)cc1C(c1ccccc1Cl)=NC2 | 120 |
| Cc1nnc2n1-c1sc(C#CCN3C(=O)Cc4ccccc43)cc1C(c1ccccc1Cl)=NC2 | 3 |
| Cc1nnc2n1-c1ccc(I)cc1C(c1ccccc1Cl)=NC2 | 1000 |
| Cc1nnc2n1-c1ccc(C#CCN3C(=O)c4ccccc4C3=O)cc1C(c1ccccc1F)=NC2 | 10 |
| Cc1nnc2n1-c1sc(C#CCN3C(=O)c4cccc5cccc3c45)cc1C(c1ccccc1Cl)=NC2 | 5 |
| Cc1nnc2n1-c1sc(C#CCn3c(=O)c4cc(Cl)ccc4c4ccc(Cl)cc43)cc1C(c1ccccc1Cl)=NC2 | 30 |
| Cc1nnc2n1-c1sc(C#CCN3C(=O)CC(C)(C)c4ccccc43)cc1C(c1ccccc1Cl)=NC2 | 12 |
| Cc1nnc2n1-c1sc(C#CCn3c(=O)ccc4ccccc43)cc1C(c1ccccc1Cl)=NC2 | 2 |
| Cc1nnc2n1-c1ccc(C#CCN3C(=O)CCc4ccccc43)cc1C(c1ccccc1F)=NC2 | 20 |
| COc1cc2c(cc1OC)C(=O)N(CC#Cc1cc3c(s1)-n1c(C)nnc1CN=C3c1ccccc1Cl)CC2 | 25 |
| O=C1CCc2ccccc2N1CC#Cc1ccc2c(c1)C(c1ccc(Cl)cc1)=NCc1nnc(C(F)(F)F)n1-2 | 1000 |
| Cc1nnc2n1-c1sc(C#CCn3c(=O)c4ccccc4c4ccccc43)cc1C(c1cc(O)ccc1Cl)=NC2 | 15 |
| Cc1nnc2n1-c1sc(C#CCN3C(=O)C4(C)CCCc5cccc3c54)cc1C(c1ccccc1Cl)=NC2 (stereo not given) | 12 |
| Cc1nnc2n1-c1sc(C#CCn3c(=O)c4ccccc4c4ccccc43)cc1C(c1ccccc1Cl)=NC2C (stereo not given) | 250 |

— BindingDB's records for doi:10.1021/jm00107a048 (Roche Research Center, 1991)
